This note sets out measurements from patent US20240261417A1, “SOS1 DEGRADING AGENT AND PREPARATION METHOD THEREFOR AND APPLICATION THEREOF” (SHANGHAI LEADINGTAC PHARMACEUTICAL CO. LTD., priority 2021, published 2024).

This assay addresses T1, SOS1 protein (Homo sapiens, UniProt Q07889).
T1 sequence (Q07889 1-1333): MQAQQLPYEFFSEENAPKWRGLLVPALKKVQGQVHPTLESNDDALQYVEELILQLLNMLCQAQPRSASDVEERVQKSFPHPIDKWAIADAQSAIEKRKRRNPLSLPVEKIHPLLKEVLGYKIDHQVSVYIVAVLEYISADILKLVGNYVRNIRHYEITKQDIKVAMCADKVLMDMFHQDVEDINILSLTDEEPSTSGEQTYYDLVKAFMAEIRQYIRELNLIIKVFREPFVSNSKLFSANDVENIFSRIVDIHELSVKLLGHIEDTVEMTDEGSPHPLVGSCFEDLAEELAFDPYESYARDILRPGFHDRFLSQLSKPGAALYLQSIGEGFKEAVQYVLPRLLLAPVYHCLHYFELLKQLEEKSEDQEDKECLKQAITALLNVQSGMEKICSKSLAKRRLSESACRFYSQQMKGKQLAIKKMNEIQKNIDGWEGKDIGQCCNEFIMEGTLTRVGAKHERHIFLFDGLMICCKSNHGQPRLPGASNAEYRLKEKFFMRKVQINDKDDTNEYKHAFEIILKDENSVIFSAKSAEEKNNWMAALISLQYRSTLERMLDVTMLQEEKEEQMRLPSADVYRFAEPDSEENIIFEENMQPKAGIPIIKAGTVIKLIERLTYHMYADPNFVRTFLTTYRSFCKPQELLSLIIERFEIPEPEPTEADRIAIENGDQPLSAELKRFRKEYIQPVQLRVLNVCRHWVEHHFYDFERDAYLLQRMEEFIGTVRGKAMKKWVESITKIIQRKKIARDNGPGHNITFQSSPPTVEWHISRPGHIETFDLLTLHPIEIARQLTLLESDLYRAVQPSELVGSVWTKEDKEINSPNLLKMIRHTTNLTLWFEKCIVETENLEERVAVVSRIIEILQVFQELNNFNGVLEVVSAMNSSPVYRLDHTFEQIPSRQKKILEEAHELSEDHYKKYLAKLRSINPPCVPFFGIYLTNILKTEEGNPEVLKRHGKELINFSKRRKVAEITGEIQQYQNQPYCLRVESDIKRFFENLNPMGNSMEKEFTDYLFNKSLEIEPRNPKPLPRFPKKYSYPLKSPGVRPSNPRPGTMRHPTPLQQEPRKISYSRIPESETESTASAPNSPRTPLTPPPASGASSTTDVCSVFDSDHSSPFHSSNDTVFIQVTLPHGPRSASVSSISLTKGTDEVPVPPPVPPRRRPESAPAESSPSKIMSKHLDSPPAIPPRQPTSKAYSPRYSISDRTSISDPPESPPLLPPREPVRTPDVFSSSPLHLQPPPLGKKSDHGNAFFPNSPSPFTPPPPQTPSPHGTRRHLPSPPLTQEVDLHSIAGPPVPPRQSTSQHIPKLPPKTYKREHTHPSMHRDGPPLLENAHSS
Nature of the assay: SOS1 degradation assay (Western blot), NCI-H358 cells. The assay is classed as cell-based. The arrangement: The degradation of SOS1 by the compounds was investigated on KRAS G12C mutant human non-small cell lung cancer cells NCI-H358; host or cells: NCI-H358 (human cancer cell lines). The settings on record: for DC50: read-out: NCI-H358 (G12C) DC50. In short, it runs like this: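 SOS1 degradation was assessed by densitometry of Western blots, relative to untreated controls, after 24 h compound exposure (0.03–3000 nM final, 37 °C, 5% CO2) of cells seeded at 5×10^5/well. Log concentration–response fitting gave DC50 and Dmax.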
In general terms: In western blotting, separated proteins are transferred to a membrane and probed.

Setting [1] is: SOS1 degradation, NCI-H358 cells, 24 h, Western blot.
Where [2] appears, read: SOS1 degradation, NCI-H358 cells, 24 h, Western blot, read-out: NCI-H358 (G12C) Dmax.

Read-outs that look alike come from different tables or passages of the source. Bounds are passed on as bounds.

By DC50 is commonly meant the concentration giving 50% degradation. For orientation: Dmax means the greatest extent of degradation seen. Take `COc1cc2nc(C)nc(N[C@H](C)c3cc(N)cc(C(F)(F)F)c3)c2cc1[C@H]1CC[C@H](C(=O)N2CCN(CC3CCC4(CC3)CCN(C(=O)c3ccc(N5CCC(=O)NC5=O)cc3)CC4)CC2)CC1` [Example 22, 1-(4-(9-((4-((1R,4R)-4-(4-(((R)-1-(3-amino-5-(trifluoromethyl)phenyl)ethyl)amino)-7-methoxy-2-methylquinazolin-6-yl)cyclohexane-1-carbonyl)piperazin-1-yl)methyl)-3-azaspiro[5.5]undecane-3-carbonyl)phenyl)dihydropyrimidine-2,4(1H,3H)-dione]: under setting [1], the DC50 lay within 1000 to 10000 nM. The Dmax under setting [2] was in the range of 30 to 50%.

As for `COc1cc2nc(C)nc(N[C@H](C)c3cc(N)cc(C(F)(F)F)c3)c2cc1O[C@H]1CC[C@H](C(=O)N2CCN(CC3CCC4(CC3)CCN(C(=O)c3ccc(Cl)c(N5CCC(=O)NC5=O)c3)CC4)CC2)CC1` [Example 31, 1-(5-(9-((4-((1R,4R)-4-((4-(((R)-1-(3-amino-5-(trifluoromethyl)phenyl)ethyl)amino)-7-methoxy-2-methylquinazolin-6-yl)oxo)cyclohexane-1-carbonyl)piperazin-1-yl)methyl)-3-azaspiro[5.5]undecane-3-carbonyl)-2-chlorophenyl)dihydropyrimidine-2,4(1H,3H)-dione], the DC50 under setting [1] fell in the range of 1000 to 10000 nM. Also, the Dmax under setting [2] is below 30%.

As to `COc1cc2nc(C)nc(N[C@H](C)c3cc(NC(C)=O)cc(C(F)(F)F)c3)c2cc1[C@H]1CC[C@H](C(=O)N2CCN(CC3CCC4(CC3)CCN(C(=O)c3ccc(Cl)c(N5CCC(=O)NC5=O)c3)CC4)CC2)CC1` [Example 17, N-(3-((R)-1-((6-((1R,4R)-4-(4-((3-(4-chloro-3-(2,4-dioxotetrahydropyrimidin-1(2H)-yl)benzoyl)-3-azaspiro[5.5]undecane-9-yl)methyl)piperazine-1-carbonyl)cyclohexyl)-7-methoxy-2-methylquinazolin-4-yl)amino)ethyl)-5-(trifluoromethyl)phenyl)acetamide], the half-maximal degradation concentration (DC50) under setting [1] lay in the range of 1000 to 10000 nM. Moreover, the Dmax under setting [2] is 30 to 50%.

As to `COc1cc2nc(C)nc(N[C@H](C)c3cc(N)cc(C(F)(F)F)c3)c2cc1[C@H]1CC[C@H](C(=O)N(C)CC2CCC3(CC2)CCN(C(=O)c2ccc(Cl)c(N4CCC(=O)NC4=O)c2)CC3)CC1` [Example 9, (1R,4R)-4-(4-(((R)-1-(3-amino-5-(trifluoromethyl)phenyl)ethyl)amino)-7-methoxy-2-methylquinazolin-6-yl)-N-((3-(4-chloro-3-(2,4-dioxotetrahydropyrimidin-1(2H)-yl)benzoyl)-3-azaspiro[5.5]undecane-9-yl)methyl)-N-methylcyclohexane-1-carboxamide], the DC50 under setting [1] lay within 1000 to 10000 nM. Moreover, the Dmax under setting [2] is below 30%.

On to `COc1cc2nc(C)nc(N[C@H](C)c3cc(NC(C)C)cc(C(F)(F)F)c3)c2cc1[C@H]1CC[C@H](C(=O)N2CCN(CC3CCC4(CC3)CCN(C(=O)c3ccc(Cl)c(N5CCC(=O)NC5=O)c3)CC4)CC2)CC1` [Example 18, 1-(2-chloro-5-(9-((4-((1R,4R)-4-(4-(((R)-1-(3-(isopropylamino)-5-(trifluoromethyl)phenyl)ethyl)amino)-7-methoxy-2-methylquinazolin-6-yl)cyclohexane-1-carbonyl)piperazin-1-yl)methyl)-3-azaspiro[5.5]undecane-3-carbonyl)phenyl)dihydropyrimidine-2,4(1H,3H)-dione], for which the maximal degradation (Dmax) (NCI-H358, read-out: NCI-H358 (G12C) Dmax) is below 30%. Under setting [1], the DC50 was 1000 to 10000 nM.

Consider `COc1cc2nc(C)nc(N[C@H](C)c3cc(N)cc(C(F)(F)F)c3)c2cc1[C@H]1CC[C@H](C(=O)N2CCC(CN3CCC4(CC3)CCN(C(=O)c3ccc(Cl)c(N5CCC(=O)NC5=O)c3)CC4)CC2)CC1` [Example 7, 1-(5-(9-((1-((1R,4R)-4-(4-(((R)-1-(3-amino-5-(trifluoromethyl)phenyl)ethyl)amino)-7-methoxy-2-methylquinazolin-6-yl)cyclohexane-1-carbonyl)piperidin-4-yl)methyl)-3,9-diazaspiro[5.5]undecane-3-carbonyl)-2-chlorophenyl)dihydropyrimidine-2,4(1H,3H)-dione], for which the DC50 under setting [1] lay in the range of 1000 to 10000 nM. Moreover, the Dmax under setting [2] was in the range of 30 to 50%.

Regarding `CCNc1cc([C@@H](C)Nc2nc(C)nc3cc(OC)c([C@H]4CC[C@H](C(=O)N5CCN(CC6CCC7(CC6)CCN(C(=O)c6ccc(Cl)c(N8CCC(=O)NC8=O)c6)CC7)CC5)CC4)cc23)cc(C(F)(F)F)c1` [Example 35, 1-(2-chloro-5-(9-((4-((1R,4R)-4-(4-(((R)-1-(3-(ethylamino)-5-(trifluoromethyl)phenyl)ethyl)amino)-7-methoxy-2-methylquinazolin-6-yl)cyclohexane-1-carbonyl)piperazin-1-yl)methyl)-3-azaspiro[5.5]undecane-3-carbonyl)phenyl)dihydropyrimidine-2,4(1H,3H)-dione], under setting [1], the “NCI-H358 (G12C) Dmax” value is “C (when 30≤Dmax (%)<50, the level was C)” and the DC50 was 1000 to 10000 nM.

As for `Cc1nc(N[C@H](C)c2cc(N)cc(C(F)(F)F)c2)c2cc([C@H]3CC[C@H](C(=O)N4CCN(CC5CCC6(CC5)CCN(C(=O)c5ccc(Cl)c(N7CCC(=O)NC7=O)c5)CC6)CC4)CC3)ncc2n1` [Example 78, 1-(5-(9-((4-((1R,4R)-4-(4-(((R)-1-(3-amino-5-(trifluoromethyl)phenyl)ethyl)amino)-2-methylpyrido[3,4-d]pyrimidin-6-yl)cyclohexane-1-carbonyl)piperazin-1-yl)methyl)-3-azaspiro[5.5]undecane-3-carbonyl)-2-chlorophenyl)dihydropyrimidine-2,4(1H,3H)-dione], the DC50 under setting [1] lay in the range of 100 to 500 nM. Also, the Dmax under setting [2] is 50 to 80%.

For the molecule `COc1cc2nc(C)nc(N[C@H](C)c3cc(N)cc(C(F)(F)F)c3)c2cc1[C@H]1CC[C@H](C(=O)N2CCC(CC3CCC4(CC3)CCN(C(=O)c3ccc(Cl)c(N5CCC(=O)NC5=O)c3)CC4)CC2)CC1` [Example 8, 1-(5-(9-((1-((1R,4R)-4-(4-(((R)-1-(3-amino-5-(trifluoromethyl)phenyl)ethyl)amino)-7-methoxy-2-methylquinazolin-6-yl)cyclohexane-1-carbonyl)piperidin-4-yl)methyl)-3-azaspiro[5.5]undecane-3-carbonyl)-2-chlorophenyl)dihydropyrimidine-2,4(1H,3H)-dione], the 50% degradation concentration (DC50) under setting [1] lay within 50 to 100 nM. In addition, the Dmax under setting [2] fell in the range of 80 to 100%.

On to `COc1cc2nc(C)nc(N[C@H](C)c3cc(N)cc(C(F)(F)F)c3)c2cc1[C@H]1CC[C@H](C(=O)N2CCN(CC3CCN(C(=O)COc4ccc(Cl)c(N5CCC(=O)NC5=O)c4)CC3)CC2)CC1` [Example 37, 1-(5-(2-(4-((4-((1R,4R)-4-(4-(((R)-1-(3-amino-5-(trifluoromethyl)phenyl)ethyl)amino)-7-methoxy-2-methylquinazolin-6-yl)cyclohexane-1-carbonyl)piperazin-1-yl)methyl)piperidin-1-yl)-2-oxoethoxy)-2-chlorophenyl)dihydropyrimidine-2,4(1H,3H)-dione], for which, under setting [1], the DC50 is 1000 to 10000 nM. Under setting [2], the Dmax is below 30%.

For the molecule `CNCc1ccccc1-c1csc([C@@H](C)Nc2nc(C)nc3cc(OC)c([C@H]4CC[C@H](C(=O)N5CCN(CC6CCC7(CC6)CCN(C(=O)c6ccc(F)c(N8CCC(=O)NC8=O)c6)CC7)CC5)CC4)cc23)c1` [Example 74, 1-(2-fluoro-5-(9-((4-((1R,4R)-4-(7-methoxy-2-methyl-4-(((R)-1-(4-(2-((methylamino)methyl)phenyl)thien-2-yl)ethyl)amino)quinazolin-6-yl)cyclohexane-1-carbonyl)piperazin-1-yl)methyl)-3-azaspiro[5.5]undecane-3-carbonyl)phenyl)dihydropyrimidine-2,4(1H,3H)-dione], the half-maximal degradation concentration (DC50) under setting [1] was below 50 nM. Further, the Dmax under setting [2] was in the range of 80 to 100%.
